Measured values published in ChEMBL document CHEMBL5465560, “Selectivity Literature for EUbOPEN Chemogenomic Library” (2024).
Each block holds one compound with its values, some of them ahead of it.

Key:
Activated CDC42 kinase 1 = Activated CDC42 kinase 1 (Homo sapiens, UniProt Q07912); assay: Selectivity interaction (LanthaScreen Eu Kinase Binding Assay) EUB0001632a TNK2; conditions: at 10 µM
[1] = biological target: T1, Myosin light chain kinase family member 4 (Homo sapiens) (UniProt Q86YV6); assay: Selectivity interaction (KinomeScan (DiscoverX)) EUB0000666a MYLK4; conditions: at 10 µM
T1 sequence (whole entry): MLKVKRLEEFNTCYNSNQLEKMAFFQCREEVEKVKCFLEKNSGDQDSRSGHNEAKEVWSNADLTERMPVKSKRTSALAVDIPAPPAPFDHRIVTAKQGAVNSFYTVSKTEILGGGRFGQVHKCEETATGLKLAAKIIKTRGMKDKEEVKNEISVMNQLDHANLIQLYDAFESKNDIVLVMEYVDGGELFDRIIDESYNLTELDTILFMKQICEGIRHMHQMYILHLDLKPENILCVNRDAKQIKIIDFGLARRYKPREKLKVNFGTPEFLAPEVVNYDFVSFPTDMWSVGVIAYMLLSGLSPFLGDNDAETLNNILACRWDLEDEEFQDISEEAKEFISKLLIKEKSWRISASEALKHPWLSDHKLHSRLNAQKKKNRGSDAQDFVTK

[2] = biological target: Cyclin-dependent kinase 7 (Homo sapiens, UniProt P50613); assay: Selectivity interaction (ActivX KiNativ screen (kinase selectivity in THP-1 cell lysates)) EUB0000639a CDK7; type: subcellular; conditions: lysate, at 5 µM
[3] = biological target: Cyclin-dependent kinase 11A (Homo sapiens, UniProt Q9UQ88); assay: Selectivity interaction (Kinase panel (Invitrogen, enzymatic assay)) EUB0000162b CDK11A
[4] = biological target: T2, Serine/threonine-protein kinase RIO3 (Homo sapiens) (UniProt O14730); assay: Selectivity interaction (Ambit KINOMEscan and KiNATiv profiling in Jurkat cells) EUB0000090b RIOK3; type: cell-based; conditions: at 1 µM
T2 sequence (whole entry): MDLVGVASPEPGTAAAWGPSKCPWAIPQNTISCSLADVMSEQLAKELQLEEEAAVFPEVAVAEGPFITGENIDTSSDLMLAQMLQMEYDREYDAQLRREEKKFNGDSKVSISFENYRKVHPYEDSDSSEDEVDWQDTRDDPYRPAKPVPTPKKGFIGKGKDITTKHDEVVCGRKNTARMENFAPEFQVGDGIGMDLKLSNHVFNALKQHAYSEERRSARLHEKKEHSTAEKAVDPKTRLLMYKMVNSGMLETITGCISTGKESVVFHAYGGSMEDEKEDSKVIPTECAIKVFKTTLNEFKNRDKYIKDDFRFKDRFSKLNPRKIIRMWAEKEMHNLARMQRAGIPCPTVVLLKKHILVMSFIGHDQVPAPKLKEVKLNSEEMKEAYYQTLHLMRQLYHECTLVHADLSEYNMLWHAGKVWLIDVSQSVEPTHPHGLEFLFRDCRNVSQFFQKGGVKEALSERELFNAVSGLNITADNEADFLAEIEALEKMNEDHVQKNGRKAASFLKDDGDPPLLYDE

[5] = biological target: T3, Serine/threonine-protein kinase TNNI3K (Homo sapiens) (UniProt Q59H18); assay: Selectivity interaction (KinomeScan (DiscoverX)) EUB0001079a TNNI3K; conditions: at 1 µM
T3 sequence (whole entry): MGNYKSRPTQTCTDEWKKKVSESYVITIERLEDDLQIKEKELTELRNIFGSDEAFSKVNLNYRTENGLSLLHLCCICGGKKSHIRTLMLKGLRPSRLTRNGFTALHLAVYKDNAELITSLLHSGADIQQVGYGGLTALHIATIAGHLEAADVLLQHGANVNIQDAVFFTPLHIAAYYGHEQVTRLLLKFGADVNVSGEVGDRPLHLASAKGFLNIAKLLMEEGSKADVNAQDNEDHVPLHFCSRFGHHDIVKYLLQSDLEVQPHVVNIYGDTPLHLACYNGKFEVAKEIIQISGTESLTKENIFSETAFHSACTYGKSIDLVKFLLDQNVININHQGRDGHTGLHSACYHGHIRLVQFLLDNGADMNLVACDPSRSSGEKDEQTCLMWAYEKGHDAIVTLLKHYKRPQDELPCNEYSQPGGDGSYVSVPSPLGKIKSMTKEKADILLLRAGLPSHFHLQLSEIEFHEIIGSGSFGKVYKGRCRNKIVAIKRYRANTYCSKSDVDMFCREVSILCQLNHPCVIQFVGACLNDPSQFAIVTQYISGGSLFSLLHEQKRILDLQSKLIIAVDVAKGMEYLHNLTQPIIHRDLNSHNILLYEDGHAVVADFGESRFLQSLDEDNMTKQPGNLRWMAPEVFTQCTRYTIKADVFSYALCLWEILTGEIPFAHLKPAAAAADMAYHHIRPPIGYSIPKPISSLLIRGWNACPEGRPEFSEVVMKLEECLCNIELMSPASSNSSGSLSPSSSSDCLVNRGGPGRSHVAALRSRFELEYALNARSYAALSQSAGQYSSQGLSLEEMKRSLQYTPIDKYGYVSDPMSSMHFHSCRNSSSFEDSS

[6] = biological target: Myosin light chain kinase 2, skeletal/cardiac muscle (Homo sapiens) (UniProt Q9H1R3); conditions: at 10 µM
[7] = biological target: T4, Serine/threonine-protein kinase D2 (Homo sapiens) (UniProt Q9BZL6); conditions: at 10 µM
T4 sequence (whole entry): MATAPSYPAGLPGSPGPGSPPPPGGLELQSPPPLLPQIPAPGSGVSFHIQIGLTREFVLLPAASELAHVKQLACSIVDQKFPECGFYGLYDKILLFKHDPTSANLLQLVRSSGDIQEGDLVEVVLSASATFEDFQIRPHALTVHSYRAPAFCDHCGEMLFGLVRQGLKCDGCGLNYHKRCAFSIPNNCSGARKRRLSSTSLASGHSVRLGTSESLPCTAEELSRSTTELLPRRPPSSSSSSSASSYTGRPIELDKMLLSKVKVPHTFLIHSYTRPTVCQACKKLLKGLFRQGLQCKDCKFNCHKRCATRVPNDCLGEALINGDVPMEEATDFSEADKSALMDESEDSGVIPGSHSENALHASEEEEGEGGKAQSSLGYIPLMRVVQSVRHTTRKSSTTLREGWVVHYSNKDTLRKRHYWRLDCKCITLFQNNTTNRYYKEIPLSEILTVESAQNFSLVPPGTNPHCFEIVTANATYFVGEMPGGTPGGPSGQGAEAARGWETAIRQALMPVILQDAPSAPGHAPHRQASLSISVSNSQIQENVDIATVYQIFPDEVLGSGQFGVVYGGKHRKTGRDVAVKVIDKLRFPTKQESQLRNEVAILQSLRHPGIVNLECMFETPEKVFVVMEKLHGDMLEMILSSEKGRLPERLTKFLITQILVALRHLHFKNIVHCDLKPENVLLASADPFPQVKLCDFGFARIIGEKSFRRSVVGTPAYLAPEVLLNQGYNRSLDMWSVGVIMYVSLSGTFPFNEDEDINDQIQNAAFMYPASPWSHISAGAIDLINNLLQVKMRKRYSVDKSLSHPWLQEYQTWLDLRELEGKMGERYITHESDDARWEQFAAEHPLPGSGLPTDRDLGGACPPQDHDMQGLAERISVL

Sequence of Cyclin-dependent kinase 7 (P50613 whole entry): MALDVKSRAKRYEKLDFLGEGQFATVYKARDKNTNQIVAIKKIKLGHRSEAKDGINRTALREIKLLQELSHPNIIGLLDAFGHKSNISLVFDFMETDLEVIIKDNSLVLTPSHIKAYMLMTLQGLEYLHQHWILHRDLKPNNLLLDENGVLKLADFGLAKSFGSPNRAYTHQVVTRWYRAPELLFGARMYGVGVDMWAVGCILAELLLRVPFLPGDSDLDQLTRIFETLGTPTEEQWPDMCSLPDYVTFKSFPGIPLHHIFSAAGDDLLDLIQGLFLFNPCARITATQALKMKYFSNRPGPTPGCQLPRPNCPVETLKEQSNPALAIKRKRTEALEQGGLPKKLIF
Sequence of Myosin light chain kinase 2, skeletal/cardiac muscle (Homo sapiens) (Q9H1R3 whole entry): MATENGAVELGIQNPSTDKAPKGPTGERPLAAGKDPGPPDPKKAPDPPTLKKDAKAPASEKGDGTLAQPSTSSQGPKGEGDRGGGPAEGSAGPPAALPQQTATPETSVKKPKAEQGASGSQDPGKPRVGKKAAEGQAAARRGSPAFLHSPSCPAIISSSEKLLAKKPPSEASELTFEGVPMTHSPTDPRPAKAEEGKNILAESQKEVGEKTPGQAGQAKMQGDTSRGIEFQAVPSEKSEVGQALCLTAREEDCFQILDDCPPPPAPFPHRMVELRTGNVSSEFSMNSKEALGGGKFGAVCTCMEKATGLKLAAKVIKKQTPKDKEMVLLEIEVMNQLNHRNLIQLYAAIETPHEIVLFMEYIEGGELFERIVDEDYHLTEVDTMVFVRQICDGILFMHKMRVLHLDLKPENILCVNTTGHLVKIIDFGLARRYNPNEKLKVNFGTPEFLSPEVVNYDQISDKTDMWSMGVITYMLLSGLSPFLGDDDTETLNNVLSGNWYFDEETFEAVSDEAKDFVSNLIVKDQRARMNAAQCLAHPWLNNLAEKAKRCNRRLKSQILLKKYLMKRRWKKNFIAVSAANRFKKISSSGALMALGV
Sequence of Activated CDC42 kinase 1 (Q07912 whole entry, looked up): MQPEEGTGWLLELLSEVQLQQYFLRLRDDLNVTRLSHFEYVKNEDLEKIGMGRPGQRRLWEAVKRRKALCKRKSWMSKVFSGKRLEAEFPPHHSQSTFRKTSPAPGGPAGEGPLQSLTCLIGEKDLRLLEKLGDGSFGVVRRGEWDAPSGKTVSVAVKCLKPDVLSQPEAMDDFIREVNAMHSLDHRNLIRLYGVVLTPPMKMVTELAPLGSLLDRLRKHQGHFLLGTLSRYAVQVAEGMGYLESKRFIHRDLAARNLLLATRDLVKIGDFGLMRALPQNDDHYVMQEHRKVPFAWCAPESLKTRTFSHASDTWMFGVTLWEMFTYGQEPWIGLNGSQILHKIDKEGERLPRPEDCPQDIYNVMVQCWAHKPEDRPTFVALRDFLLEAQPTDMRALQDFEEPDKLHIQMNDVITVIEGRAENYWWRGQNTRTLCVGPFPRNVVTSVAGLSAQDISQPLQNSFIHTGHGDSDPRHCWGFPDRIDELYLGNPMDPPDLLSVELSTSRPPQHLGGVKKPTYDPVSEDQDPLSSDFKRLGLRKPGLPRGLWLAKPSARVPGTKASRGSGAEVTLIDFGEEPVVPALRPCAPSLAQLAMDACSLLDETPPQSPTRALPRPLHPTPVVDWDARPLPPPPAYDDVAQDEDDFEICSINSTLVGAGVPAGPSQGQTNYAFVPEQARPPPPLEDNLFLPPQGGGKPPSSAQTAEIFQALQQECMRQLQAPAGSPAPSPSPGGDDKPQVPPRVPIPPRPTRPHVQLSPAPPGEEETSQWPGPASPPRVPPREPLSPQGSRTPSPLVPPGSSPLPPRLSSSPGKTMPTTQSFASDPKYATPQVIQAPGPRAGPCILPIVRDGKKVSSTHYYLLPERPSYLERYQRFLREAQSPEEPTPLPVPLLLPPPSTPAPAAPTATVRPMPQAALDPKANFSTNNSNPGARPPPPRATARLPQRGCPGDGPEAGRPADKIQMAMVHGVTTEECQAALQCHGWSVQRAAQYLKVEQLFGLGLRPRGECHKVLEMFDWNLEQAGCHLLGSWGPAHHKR
Sequence of Cyclin-dependent kinase 11A (Q9UQ88 whole entry): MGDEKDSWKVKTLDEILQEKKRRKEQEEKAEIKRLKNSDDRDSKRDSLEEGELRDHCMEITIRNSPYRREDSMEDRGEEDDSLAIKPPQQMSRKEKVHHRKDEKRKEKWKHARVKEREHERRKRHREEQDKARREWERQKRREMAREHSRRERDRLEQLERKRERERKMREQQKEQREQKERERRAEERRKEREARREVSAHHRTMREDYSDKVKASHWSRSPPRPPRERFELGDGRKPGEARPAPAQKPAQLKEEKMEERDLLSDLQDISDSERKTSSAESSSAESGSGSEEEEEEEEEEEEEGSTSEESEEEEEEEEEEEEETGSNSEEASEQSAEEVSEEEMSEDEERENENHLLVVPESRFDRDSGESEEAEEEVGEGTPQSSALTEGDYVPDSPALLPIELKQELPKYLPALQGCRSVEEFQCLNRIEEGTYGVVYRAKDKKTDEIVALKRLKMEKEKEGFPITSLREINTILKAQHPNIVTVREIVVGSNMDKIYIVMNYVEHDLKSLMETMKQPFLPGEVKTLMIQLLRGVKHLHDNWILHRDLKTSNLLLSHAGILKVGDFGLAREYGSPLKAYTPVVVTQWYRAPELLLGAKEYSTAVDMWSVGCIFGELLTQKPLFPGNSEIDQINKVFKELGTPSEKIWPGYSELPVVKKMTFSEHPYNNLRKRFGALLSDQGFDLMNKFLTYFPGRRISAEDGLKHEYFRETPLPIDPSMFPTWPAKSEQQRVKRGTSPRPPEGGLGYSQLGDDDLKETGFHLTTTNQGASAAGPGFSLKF

% of inhibition (Activated CDC42 kinase 1): -5.62%
Structure (SMILES): Cn1cc(-n2cnc3c(NCc4nc5cc(Cl)c(Cl)cc5[nH]4)nc(N4CCOCC4)nc32)cn1

Structure (SMILES): O=C(NOC[C@H](O)CO)c1ccc(F)c(F)c1Nc1ccc(I)cc1F
% of control [1]: 100%

% of inhibition [2]: 44.8%
Structure (SMILES): CC[C@@H]1[C@H](F)C(=O)N[C@@H]1COc1nccc2cc(C(N)=O)c(OC)cc12 [ZIMLOVISERTIB]

IC50 [3]: 1.7 nM
Structure (SMILES): CN(C)C(=O)Cn1cc(-c2ccc(-c3cncc4ccccc34)cc2)cn1

Structure (SMILES): CN(C)C/C=C/C(=O)Nc1ccc(C(=O)N2CCCC(Nc3ncc(Cl)c(-c4c[nH]c5ccccc45)n3)C2)cc1 (stereo not drawn)
% of control [4]: 69%

Structure (SMILES): Nc1cnc(N2CCc3cc(S(=O)(=O)Nc4c(F)cc(Cl)cc4F)cc(N4CCCC4=O)c32)nc1 [TP-020n]
% of control [5]: 49%

Structure (SMILES): Cc1cc([C@@H](C)Nc2ccccc2C(=O)O)c2nc(N3CCOCC3)cc(=O)n2c1 [AZD-6482]
% of control [6]: 100%
% of control [7]: 100%
